Each structure is given as a SMILES string. A value given as a limit tells only on which side of the number the result lay.

Our source for the IC50 values is patent US20230339970A1, “CASEIN KINASE 1 DELTA MODULATORS” (priority 2020, published 2023).

In experiment [1] the target is T1, human recombinant GST cleaved CSNK1D (Homo sapiens, UniProt P48730).
T1 construct: GST (cleaved yes); purchased University of Dundee clone DU 19064
In words: Purified Enzyme Assay (ADP-Glo CSNK1D Kinase Assay). The conditions noted are these: 2 nM CSNK1D; peptide substrate 150 μM; ATP 20 μM; 45 minutes at room temperature. In kind it is biochemical. An outline of the steps:
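Percent activity derived from ADP-Glo quantification of ADP produced. Reactions: compound dose-response with human recombinant GST-cleaved CSNK1D, ATP and substrate peptide PLSRTL-pS-VASLPGL, incubated 45 min at room temperature.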
A general note: In ADP-Glo the light output rises with the ADP produced.

The next experiment has as its target T2, human CSNK1D (Homo sapiens, UniProt P48730).
T2 construct: expressed in transfected cells
In words: Whole Cell nBRET CSNK1D Binding Assay. The note with it: living CHO cells stably expressing human CSNK1D tagged with nanoluciferase; NanoBret tracer 130 nM; 2 hours at 37 C.

T1 sequence (P48730 whole entry): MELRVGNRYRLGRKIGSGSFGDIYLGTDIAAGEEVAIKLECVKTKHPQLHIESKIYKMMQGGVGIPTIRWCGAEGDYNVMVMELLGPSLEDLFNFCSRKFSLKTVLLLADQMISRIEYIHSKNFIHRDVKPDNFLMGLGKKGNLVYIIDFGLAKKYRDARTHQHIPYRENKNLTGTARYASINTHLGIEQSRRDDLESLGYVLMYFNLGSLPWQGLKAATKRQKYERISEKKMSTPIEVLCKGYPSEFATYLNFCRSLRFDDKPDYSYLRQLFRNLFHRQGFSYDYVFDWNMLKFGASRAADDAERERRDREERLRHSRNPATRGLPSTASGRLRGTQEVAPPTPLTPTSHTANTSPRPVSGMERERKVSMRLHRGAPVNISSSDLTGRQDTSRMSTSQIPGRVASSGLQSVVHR
T2 sequence (P48730 whole entry): as above

What is called IC50 is the concentration at which inhibition is half-maximal. Consider `Fc1ccc(-c2nn3c(c2-c2ccnc4[nH]ncc24)COCC3)nc1` [Example 78, 2-(5-Fluoro-2-pyridyl)-3-(1H-pyrazolo[3,4-b]pyridin-4-yl)-6,7-dihydro-4H-pyrazolo[5,1-c][1,4]oxazine], for which the IC50 in experiment [1] is 15 nM; on human CSNK1D, 337 nM.
Take `Cc1nc2[nH]ncc2c(-c2c(-c3ccc(F)cn3)nn3c2CO[C@@](C)(C(F)(F)F)C3)c1F` (single isomer, unassigned) [Example 420, (*R)-3-(5-Fluoro-6-methyl-1H-pyrazolo[3,4-b]pyridin-4-yl)-2-(5-fluoropyridin-2-yl)-6-methyl-6-(trifluoromethyl)-6,7-dihydro-4H-pyrazolo[5,1-c][1,4]oxazine]: the results for the IC50 (in experiment [1]; on human CSNK1D) were 3 nM and 24 nM, respectively.
Consider `CC1(C)Cc2c(-c3ccnc4[nH]ncc34)c(-c3ccc(F)cn3)nn2C1` [Example 234, 4-[2-(5-Fluoro-2-pyridyl)-5,5-dimethyl-4,6-dihydropyrrolo[1,2-b]pyrazol-3-yl]-1H-pyrazolo[3,4-b]pyridine], for which the IC50 in experiment [1] is 2 nM; on human CSNK1D it was 32 nM.
As for `CC1(C(F)(F)F)Cn2nc(-c3ccc(F)cn3)c(-c3ccnc4[nH]ncc34)c2CO1` (stereo not shown) [Example 176, 2-(5-Fluoropyridin-2-yl)-6-methyl-3-(1H-pyrazolo[3,4-b]pyridin-4-yl)-6-(trifluoromethyl)-6,7-dihydro-4H-pyrazolo[5,1-c][1,4]oxazine], the IC50 came out at 7 nM in experiment [1] and 198 nM at human CSNK1D.
In the same order, the values of `C[C@@H]1OCc2c(-c3ccnc4[nH]ncc34)c(-c3ccc(F)cn3)nn2[C@@H]1C` (single isomer, unassigned) [Example 117, (6*S,7*R)-2-(5-Fluoropyridin-2-yl)-6,7-dimethyl-3-(1H-pyrazolo[3,4-b]pyridin-4-yl)-6,7-dihydro-4H-pyrazolo[5,1-c][1,4]oxazine] are 45 nM and 925 nM.
Turning to `Cc1cc(-c2c(-c3ccc(F)cn3)nn3c2CO[C@@H](C)C3)c2cn[nH]c2n1` (single isomer, unassigned) [Example 89], the IC50 in experiment [1] was found to be 9 nM; at human CSNK1D, 275 nM.
In the same order, the values of `O=C1OCCn2nc(-c3ccc(F)cc3)c(-c3ccnc4[nH]ncc34)c21` [Example 181, 2-(4-Fluorophenyl)-3-(1H-pyrazolo[3,4-b]pyridin-4-yl)-6,7-dihydropyrazolo[5,1-c][1,4]oxazin-4-one] are 32 nM and 3240 nM.
In the same order, the values of `C[C@@H]1n2nc(-c3ccc(F)cc3)c(-c3ccnc4[nH]ncc34)c2COC1(C)C` (single isomer, unassigned) [Example 171] are 1 nM and 6 nM.
`COCC1(F)CCc2c(-c3ccnc4[nH]ncc34)c(-c3ccc(F)cn3)nn2C1` (single isomer, unassigned) [Example 301, (*R)-4-[6-Fluoro-2-(5-fluoro-2-pyridyl)-6-(methoxymethyl)-5,7-dihydro-4H-pyrazolo[1,5-a]pyridin-3-yl]-1H-pyrazolo[3,4-b]pyridine]: the figures for the IC50 (in experiment [1]; at human CSNK1D) were 4 nM and 110 nM, respectively.
The like results for `[2H]C([2H])([2H])[C@]1(C(F)(F)F)Cn2nc(-c3ccc(F)cn3)c(-c3c(F)c(C)nc4[nH]nc(C)c34)c2CO1` (single isomer, unassigned) [Example 430, (*R)-3-(5-Fluoro-3,6-dimethyl-1H-pyrazolo[3,4-b]pyridin-4-yl)-2-(5-fluoropyridin-2-yl)-6-(methyl-d3)-6-(trifluoromethyl)-6,7-dihydro-4H-pyrazolo[5,1-c][1,4]oxazine] were, in that order, 92 nM and 1190 nM.
Regarding `Cc1n[nH]c2nccc(-c3c(-c4ccc(F)cc4)nn4c3COC(C(F)(F)F)C4)c12` (single isomer, unassigned) [Example 373, (*R)-2-(4-Fluorophenyl)-3-(3-methyl-1H-pyrazolo[3,4-b]pyridin-4-yl)-6-(trifluoromethyl)-6,7-dihydro-4H-pyrazolo[5,1-c][1,4]oxazine], the 50% inhibitory concentration (IC50) in experiment [1] was 306 nM; at human CSNK1D, more than 10000 nM.
The like results for `C[C@H]1n2nc(-c3ccc(F)cc3)c(-c3ccnc4[nH]ncc34)c2COC1(C)C` (single isomer, unassigned) [Example 172] were, in that order, 5 nM and 54 nM.
The like results for `Cc1cc(-c2c(-c3ccc(F)cn3)nn3c2COCC3)c2cn[nH]c2n1` [Example 79, 2-(5-Fluoro-2-pyridyl)-3-(6-methyl-1H-pyrazolo[3,4-b]pyridin-4-yl)-6,7-dihydro-4H-pyrazolo[5,1-c][1,4]oxazine] were, in that order, 7 nM and 227 nM.
`Fc1ccc(-c2nn3c(c2-c2ccnc4[nH]ncc24)COCC32CC2)cc1` [Example 106, 2′-(4-Fluorophenyl)-3′-(1H-pyrazolo[3,4-b]pyridin-4-yl)-4′H,6′H-spiro[cyclopropane-1,7′-pyrazolo[5,1-c][1,4]oxazine]]: the IC50 was 9 nM in experiment [1] and 137 nM at human CSNK1D.
The like results for `CC1(CF)CCc2c(-c3ccn4nccc4c3)c(-c3ccc(F)cn3)nn2C1` (single isomer, unassigned) [Example 289, (*R)-5-[6-(Fluoromethyl)-2-(5-fluoro-2-pyridyl)-6-methyl-5,7-dihydro-4H-pyrazolo[1,5-a]pyridin-3-yl]pyrazolo[1,5-a]pyridine] were, in that order, 94 nM and 114 nM.
As for `[2H]C([2H])([2H])C1(C([2H])([2H])[2H])Cn2nc(-c3ccc(F)cn3)c(-c3cc(C(F)F)nc4[nH]ncc34)c2CO1` [Example 402, 3-(6-(Difluoromethyl)-1H-pyrazolo[3,4-b]pyridin-4-yl)-2-(5-fluoropyridin-2-yl)-6,6-bis(methyl-d3)-6,7-dihydro-4H-pyrazolo[5,1-c][1,4]oxazine], the figures for the IC50 (in experiment [1]; at human CSNK1D) were 5 nM and 75 nM, respectively.
The like results for `Fc1ccc(-c2nn3c(c2-c2c(F)cnc4[nH]ncc24)C[C@H](F)C3)cc1` [Example 227, 5-Fluoro-4-[(5S)-5-fluoro-2-(4-fluorophenyl)-5,6-dihydro-4H-pyrrolo[1,2-b]pyrazol-3-yl]-1H-pyrazolo[3,4-b]pyridine] were, in that order, 1 nM and 3 nM.
The like results for `CC1(C)Cn2nc(-c3ncc(F)cc3F)c(-c3ccnc4[nH]ncc34)c2CO1` [Example 166, 2-(3,5-Difluoropyridin-2-yl)-6,6-dimethyl-3-(1H-pyrazolo[3,4-b]pyridin-4-yl)-6,7-dihydro-4H-pyrazolo[5,1-c][1,4]oxazine] were, in that order, 7 nM and 102 nM.
In the same order, the values of `CC1(C)Cn2nc(-c3cscn3)c(-c3ccnc4[nH]ncc34)c2CO1` [Example 124, 6,6-Dimethyl-3-(1H-pyrazolo[3,4-b]pyridin-4-yl)-2-(thiazol-4-yl)-6,7-dihydro-4H-pyrazolo[5,1-c][1,4]oxazine] are 17 nM and 343 nM.
Regarding `C[C@@H]1[C@@H](C)OCc2c(-c3ccnc4[nH]ncc34)c(-c3ccc(F)cc3)nn21` (relative stereo) [Example 114, (6*R,7*R)-2-(4-Fluorophenyl)-6,7-dimethyl-3-(1H-pyrazolo[3,4-b]pyridin-4-yl)-6,7-dihydro-4H-pyrazolo[5,1-c][1,4]oxazine], the figures for the IC50 (in experiment [1]; at human CSNK1D) were 6 nM and 55 nM, respectively.
`C[C@H]1COCc2c(-c3ccnc4[nH]ncc34)c(-c3ccc(F)cc3)nn21` (single isomer, unassigned) [Example 91, (*S)-2-(4-Fluorophenyl)-7-methyl-3-(1H-pyrazolo[3,4-b]pyridin-4-yl)-6,7-dihydro-4H-pyrazolo[5,1-c][1,4]oxazine]: the values for the IC50 (in experiment [1]; at human CSNK1D) were 8 nM and 151 nM, respectively.
Regarding `Cc1nc2[nH]ncc2c(-c2c(-c3ccc(F)cn3)nn3c2OCC2(CC2)C3)c1F` [Example 463, 3′-(5-Fluoro-6-methyl-1H-pyrazolo[3,4-b]pyridin-4-yl)-2′-(5-fluoropyridin-2-yl)-5′H,7′H-spiro[cyclopropane-1,6′-pyrazolo[5,1-b][1,3]oxazine]], the figures for the IC50 (in experiment [1]; at human CSNK1D) were 2 nM and 20 nM, respectively.
For `Cc1cc(-c2c(-c3ccc(F)cn3)nn3c2CCC(F)(F)C3)c2cn[nH]c2n1` [Example 45, 4-(6,6-Difluoro-2-(5-fluoropyridin-2-yl)-4,5,6,7-tetrahydropyrazolo[1,5-a]pyridin-3-yl)-6-methyl-1H-pyrazolo[3,4-b]pyridine], the IC50 in experiment [1] came out at 12 nM; on human CSNK1D, 169 nM.
In the same order, the values of `Cc1nc2[nH]nc(C)c2c(-c2c(-c3ccc(F)cn3)nn3c2CC[C@@H]2C[C@@H]23)c1F` (single isomer, unassigned) [Example 346, (5a*R,6a*S)-3-(5-Fluoro-3,6-dimethyl-1H-pyrazolo[3,4-b]pyridin-4-yl)-2-(5-fluoropyridin-2-yl)-5,5a,6,6a-tetrahydro-4H-cyclopropa[e]pyrazolo[1,5-a]pyridine] are 25 nM and 173 nM.
With `Cc1cc(-c2c(-c3cscn3)nn3c2CCCC3)c2cn[nH]c2n1` [Example 32, 4-(3-(6-Methyl-1H-pyrazolo[3,4-b]pyridin-4-yl)-4,5,6,7-tetrahydropyrazolo[1,5-a]pyridin-2-yl)thiazole], the results for the IC50 (in experiment [1]; on human CSNK1D) were 60 nM and 3020 nM, respectively.
In the same order, the values of `Fc1ccc(-c2nn3c(c2-c2ccnc4cn[nH]c24)CCC3)nc1` [Example 220, 7-[2-(5-Fluoro-2-pyridyl)-5,6-dihydro-4H-pyrrolo[1,2-b]pyrazol-3-yl]-1H-pyrazolo[4,3-b]pyridine] are 99 nM and 1490 nM.
